Source: BindingDB's records for doi:10.1021/jm00371a008 (1984)

Each compound was assayed against Folylpolyglutamate synthase (Mus musculus) (assay: Compound was evaluated for the binding affinity to mouse liver folyl polyglutamate synthetase.).

Question: `Nc1nc(N)c2nc(CNc3ccc(C(=O)NC(CS(=O)(=O)O)C(=O)O)cc3)cnc2n1` (centres undefined) [2-{4-[(2,4-Diamino-pteridin-6-ylmethyl)-amino]-benzoylamino}-3-sulfo-propionic acid] was tested. Which Ki did it give?
Answer: The Ki was 43 µM.

Question: Which Ki does the source give for `Nc1nc(N)c2nc(CNc3ccc(C(=O)NC(CCS(=O)(=O)O)C(=O)O)cc3)cnc2n1` (centres undefined) [2-{4-[(2,4-Diamino-pteridin-6-ylmethyl)-amino]-benzoylamino}-4-sulfo-butyric acid] here?
Answer: Its Ki is 59 µM.

Question: For `CN(Cc1cnc2nc(N)nc(N)c2n1)c1ccc(C(=O)NC(CS(=O)(=O)O)C(=O)O)cc1` (centres undefined) [2-{4-[(2,4-Diamino-pteridin-6-ylmethyl)-methyl-amino]-benzoylamino}-3-sulfo-propionic acid], which Ki is on record?
Answer: Its Ki is 136 µM.

Question: For `CN(Cc1cnc2nc(N)nc(N)c2n1)c1ccc(C(=O)NC(CCS(=O)(=O)O)C(=O)O)cc1` (centres undefined) [2-{4-[(2,4-Diamino-pteridin-6-ylmethyl)-methyl-amino]-benzoylamino}-4-sulfo-butyric acid], which Ki is on record?
Answer: Its Ki is 198 µM.
